Test results reported in patent publication US7642283B2, “Mitochrondrial permeability transition pore affinity labels and modulators” (Hoffmann-La Roche Inc., priority 2003, dated 2010).
Read-outs that look alike come from different tables or passages of the source.

How the values were obtained:
VDAC1 = target: T1, VDAC1 (Rattus norvegicus, UniProt Q9Z2L0); assay: Affinity labeling of rat mitochondria with the tritiated spiro compound, SDS-PAGE and fluorography; type: binding; conditions: rat brain mitochondria; 10 nM radiolabel
T1 construct: from tissue; host or cells: Percoll-purified rat brain and liver mitochondria
Method: FIG. 6: Affinity-labeling of isolated rat brain (A) and liver (B) mitochondria. Mitochondrial preparations were incubated in the presence of 10 nM Spiro[cyclopentane-1,5′-[5H]dibenzo[a,d]cyclohepten]-2-one,10′,11′-t2-10′,11′-dihydro-3-methylene- for 15 min at 25° C. in presence or absence of various concentrations of Spiro[cyclopentane-1,5′-[5H]dibenzo[a,d]cyclohepten]-2-one,10′,11′-dihydro-3-methylene-(unlabeled). Samples were submitted to SDS-PAGE (see Experimental Procedures section for details) and fluorography. The fluorograms of the gels are shown. The molecular mass scale (kDa) is shown in the ordinate.
(§1) FIG. 8: (A) Effect of monobromobimano (MBBM) and phenylarsino oxide (PhAO) on VDAC1 labeling by Spiro[cyclopentane-1,5′-[5H]dibenzo[a,d]cyclohepten]-2-one,10′,11′-t2-10′,11′-dihydro-3-methylene- in rat brain mitochondria. Experimental conditions were as in the legend to FIG. 5. (B) Effect of various MPTP inhibitors, atractyloside (ATR) and DIDS on VDAC1 labeling by Spiro[cyclopentane-1,5′-[5H]dibenzo[a,d]cyclohepten]-2-one,10′,11′-t2-10′,11′-dihydro-3-methylene- in rat brain mitochondria. Mitochondria were exposed to DIDS for 5 min before rinsing for removal of the free agent and labeling with Spiro[cyclopentane-1,5′-[5H]dibenzo[a,d]cyclohepten]-2-one,10′,11′-t2-10′,11′-dihydro-3-methylene.
Percoll purified mitochondria (˜30 μg protein per sample) were incubated in the presence of 10 nM Spiro[cyclopentane-1,5′-[5H]dibenzo[a,d]cyclohepten]-2-one,10′,11′-t2-10′,11′-dihydro-3-methylene- in a final volume of 200 μl. After incubation for 15 min at 25° C., samples were centrifuged at 25000×g and the mitochondrial pellet rinsed twice with buffer. Samples were then solubilized in sample buffer containing β-mercaptoethanol (1 h at 37° C.) and subjected to SDS-polyacrylamide gel-electrophoresis (SDS-PAGE) on Tris-glycine Novex pre-cast mini-gels (12% monomer concentration, Invitrogen BV, The Netherlands). After Coomassie Blue staining, gels were processed for fluorography by soaking in Amplify™ (Amersham Biosciences), drying and exposing to X-ray BioMax MS film with BioMax MS intensifying screen (Kodak) at −80° C. for the appropriate time.
as §1, with “Effect” for “FIG. 8: (A) Effect”, “monobromobimano” for “monobromobimano (MBBM)”, “oxide” for “oxide (PhAO)”, “Example 12 (FIG. 8A).” for “the legend to FIG. 5. (B)”, “Spiro[cyclopentane-1,5′-[5H]dibenzo[a,d]cyclohepten]-2-one,10′,11′-t2-10′,11′-dihydro-3-methylene (FIG. 8B).” for “Spiro[cyclopentane-1,5′-[5H]dibenzo[a,d]cyclohepten]-2-one,10′,11′-t2-10′,11′-dihydro-3-methylene.”

MPTP [1] = test system: T2, MPTP; assay: Ca2+-induced swelling in deenergized liver mitochondria; type: biochemical; conditions: n=2; 30 min after addition of 200 μM Ca2+; read-out: EC50 of MPTP inhibition in deenergized mitochondria
T2 construct: other: n=2; 30 min after addition of 200 μM Ca2+

[2] = test system: mitochondrial respiration; assay: Mitochondrial respiration (oxygen consumption); type: biochemical; conditions: at concentrations completely blocking MPTP
Method: Isolated liver mitochondria (˜0.5 mg protein ml^−1) were incubated in a batch mode in the presence of 20 nM [^3H]TPP ([^3H]Tetraphenylphosphonium ([^3H]TPP, 24-29 Ci/mmol) from Amersham Biosciences, Switzerland) for 15 min at 25° C. Aliquots (100 μl) of the mixture were then distributed into 96-well plates containing 100 μl of the test compound and the incubation prolonged for 15 min at 25° C. Samples were then filtered through 0.3% (v/v) polyethyleneimmine-treated GF/B glass fiber filters using a 96-channel cell harvester and the filters washed twice with 1 ml of buffer. Fifty μl of MICROSCINT 40 (Packard) were then added to each well, before counting for radioactivity in a TopCount scintillation counter (Packard). Non-specific uptake was determined in the presence of 1 mM unlabeled TPP or 1 μM carbonylcianide-p-trifluoromethoxyphenyl hydrazone (FCCP). Mitochondrial oxygen consumption was measured polarographically at 25° C. using a Clark-type electrode.
Compounds found to inhibit MPTP where then counter-screened using uptake of the potentiometric probe [^3H]-TPP (Hoek, J. B., Nicholls, D. G. & Williamson, J. R. (1980) J. Biol. Chem. 255, 1458-1564) for determining in a semi-quantitative, but rapid way whether they interfered with mitochondrial respiration (e.g. protonophores). […]

Cyp-D = Cyp-D (Homo sapiens, UniProt P30405); assay: Cyp-D peptidyl prolyl cis-trans isomerase enzymatic activity; type: biochemical; conditions: at concentrations completely blocking MPTP
MPTP [3] = target: T3, MPTP (Rattus norvegicus, UniProt Q9Z2L0); assay: Ca2+-retention capacity of rat brain mitochondria (Calcium Green-5N); type: biochemical
T3 construct: other: n=2; glutamate/malate; other: glutamate/malate; 20 min; mean±SEM; unit not given; other: 300 nM; relieved by 50 μM Ub5
Method: FIG. 4: (A) Effect of Spiro[cyclopentane-1,5′-[5H]dibenzo[a,d]cyclohepten]-2-one,10′,11′-dihydro-3-methylene- and CsA on Ca^2+-retention capacity of rat brain mitochondria. The incubation medium contained 0.2 M sucrose, 10 mM Tris-Mops, pH 7.4, 1 mM Pi-Tris, 5 μM EGTA and 5 mM glutamate/2.5 mM malate, buffered to pH 7.4 with Tris, containing 0.01% (w/v) bovine serum albumin and 1 μM Calcium Green-5N. The final volume was 2.5 ml. Trace (a) control, (b) 1 μM CsA, (c) 1 μM Spiro[cyclopentane-1,5′-[5H]dibenzo[a,d]cyclohepten]-2-one,10′,11′-dihydro-3-methylene- and (d) 1 μM CsA plus 1 μM Spiro[cyclopentane-1,5′-[5H]dibenzo[a,d]cyclohepten]-2-one,10′,11′-dihydro-3-methylene-. Each fluorescence spike corresponds to addition of 5 μM Ca^2+. (B) Comparison of Ca^2+-retention capacity in liver (a) and brain mitochondria (b).
Effect of Spiro[cyclopentane-1,5′-[5H]dibenzo[a,d]cyclohepten]-2-one,10′,11′-dihydro-3-methylene- and CsA on Ca^2+-retention capacity of rat brain mitochondria (FIG. 4). Measurement of extramitochondrial Ca^2+ was determined using a Perkin-Elmer LS-50B fluorimeter controlled by the FL WinLab computer program. […] The final volume was 2.5 ml and the cuvette was thermostated at 25° C. Brain mitochondria were then subjected to a train of 5 μM Ca^2+ additions (˜150 nmol mg protein^−1). Extramitochondrial Ca^2+ was monitored at excitation/emission wavelengths of 505-535. […] The Ca^2+-retention capacity in liver (a) and brain mitochondria (b) were also compared (FIG. 4B).
The effect of Spiro[cyclopentane-1,5′-[5H]dibenzo[a,d]cyclohepten]-2-one,10′,11′-dihydro-3-methylene- at inhibiting MPTP was also investigated in mitochondria isolated from rat forebrain. […] Due to the difficulties mentioned above, the effect of Spiro[cyclopentane-1,5′-[5H]dibenzo[a,d]cyclohepten]-2-one,10′,11′-dihydro-3-methylene- on MPTP in brain mitochondria was more accurately investigated by subjecting mitochondria isolated from rat forebrain to a series of Ca^2+ pulses (5 μM, ˜150 nmol mg protein^−1) and by monitoring extramitochondrial Ca^2+ or using fluororescent probes.

MPTP (Rattus norvegicus) = target: T4, MPTP (Rattus norvegicus); assay: Ca2+-induced swelling (MPTP) in rat liver mitochondria energised with succinate; type: biochemical; conditions: succinate 5 mM + 2 μM rotenone; 80 μM Ca2+; ΔA540 20 min after CaCl2
T4 construct: other: n=2; glutamate/malate; other: glutamate/malate; 20 min; mean±SEM; unit not given; other: 300 nM; relieved by 50 μM Ub5
Method: Ca^2+-induced swelling (sucrose permeability) in energized mitochondria was assayed at 25° C. in 96 well-plates by measuring changes in absorbance at 540 nm by means of a […]ax 250 spectrophometer controlled by the SOFTmax PRO™ software (Molecular Devices, Switzerland). The incubation medium contained 0.2 M sucrose, 10 mM Tris-Mops, pH 7.4, 1 mM Pi-Tris, 5 μM EGTA. Succinate (5 mM, in the presence of 2 μM rotenone) or 5 mM glutamate/2.5 mM malate, buffered to pH 7.4 with Tris, were used as respiratory substrates. After a short (˜5 min) preincubation in presence or absence of test compounds, mitochondrial swelling was induced by the addition of 20 μl CaCl2 at final concentrations ranging from 40 to 80 μM, depending on respiratory substrates and Ca^2+ sensitivity of the mitochondrial preparation. The final incubation volume was 0.2 ml and the concentration of mitochondria was ˜0.5 mg mitochondrial protein ml^−1. Swelling kinetics was followed for up to 30 min at 25° C. Absorbance readings were taken every 12 sec and the plate was shaken for 3 s between readings to ensure oxygen diffusion during the experiment and to avoid sedimentation of the mitochondria.
The incubation medium contained 0.2 M sucrose, 10 mM Tris-Mops, pH 7.4, 1 mM Pi-Tris, 5 μM EGTA.

MPTP [4] = assay: Ca2+-induced depolarisation (membrane potential, Rhodamine-123) of rat brain mitochondria; type: biochemical; conditions: 50 μM Ub5 alone
Method: (B) Ca^2+-induced depolarisation of rat brain mitochondria. The medium used was as in the legend to FIG. 4, except that 0.5 μM Rhodamine-123 was added instead of Calcium Green-5N, and MPTP was induced by addition of 20 μM Ca^2+. Trace a, control (Ca^2+ alone), b, 300 nM Spiro[cyclopentane-1,5′-[5H]dibenzo[a,d]cyclohepten]-2-one,10′,11′-dihydro-3-methylene-, c, 300 nM Spiro[cyclopentane-1,5′-[5H]dibenzo[a,d]cyclohepten]-2-one,10′,11′-dihydro-3-methylene- and 50 μM Ub5.
The effect of Spiro[cyclopentane-1,5′-[5H]dibenzo[a,d]cyclohepten]-2-one,10′,11′-dihydro-3-methylene- at inhibiting MPTP was also investigated in mitochondria isolated from rat forebrain. […] Due to the difficulties mentioned above, the effect of Spiro[cyclopentane-1,5′-[5H]dibenzo[a,d]cyclohepten]-2-one,10′,11′-dihydro-3-methylene- on MPTP in brain mitochondria was more accurately investigated by subjecting mitochondria isolated from rat forebrain to a series of Ca^2+ pulses (5 μM, ˜150 nmol mg protein^−1) and by monitoring extramitochondrial Ca^2+ or using fluororescent probes. […] Virtually identical results were obtained from experiments where Δψm was monitored after a series of Ca^2+ additions (5 μM each). Each Ca^2+ additions caused a reversible decreases in Δψm, until MPTP opening completely collapsed Δψm and no further fluorescence increase could observed after addition of the protonophore FCCP.

[5] = Ca2+ pulses, rat brain mitochondria

T1 sequence (Q9Z2L0 whole entry): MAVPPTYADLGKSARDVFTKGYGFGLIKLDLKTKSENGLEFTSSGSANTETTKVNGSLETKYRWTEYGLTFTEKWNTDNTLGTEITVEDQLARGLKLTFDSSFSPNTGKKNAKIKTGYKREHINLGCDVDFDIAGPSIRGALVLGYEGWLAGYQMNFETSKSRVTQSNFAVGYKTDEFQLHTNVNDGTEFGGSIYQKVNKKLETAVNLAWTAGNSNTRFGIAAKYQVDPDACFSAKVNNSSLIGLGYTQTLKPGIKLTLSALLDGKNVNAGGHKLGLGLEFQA
T4 sequence (Q9Z2L0 2-283): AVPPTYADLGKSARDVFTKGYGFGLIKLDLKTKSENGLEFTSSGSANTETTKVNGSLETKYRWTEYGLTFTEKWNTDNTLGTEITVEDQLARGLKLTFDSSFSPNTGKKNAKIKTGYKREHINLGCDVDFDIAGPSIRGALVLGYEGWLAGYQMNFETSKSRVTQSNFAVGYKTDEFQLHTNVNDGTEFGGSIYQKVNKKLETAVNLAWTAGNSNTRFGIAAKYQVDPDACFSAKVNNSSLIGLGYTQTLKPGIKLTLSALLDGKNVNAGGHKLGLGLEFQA
T3 sequence (Q9Z2L0 2-283): as above
Chain of Cyp-D (P30405 30-207): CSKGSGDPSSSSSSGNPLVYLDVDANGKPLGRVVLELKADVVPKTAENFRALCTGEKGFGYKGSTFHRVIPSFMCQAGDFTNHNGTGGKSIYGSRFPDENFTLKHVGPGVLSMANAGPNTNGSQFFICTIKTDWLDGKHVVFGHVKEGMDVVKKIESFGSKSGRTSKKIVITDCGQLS

Structure (SMILES)	Effect on VDAC1 labeling (incorporation of radioactivity) by the tritiated spiro compound (VDAC1)	Additive effect when combined with the spiro compound (Example 2) (MPTP [3]; [5])	EC50 (MPTP (Rattus norvegicus)) [µM]	also measured
CCN(CC)CC1COc2ccc(Br)cc2C1=O (stereo not shown) [6-bromo-3-diethylaminomethyl-chroman-4-one]	inhibited	–	–	–
C=C1COc2ccc(Br)cc2C1=O [6-bromo-3-methylene-chroman-4-one]	inhibited	no additive effect	–	EC50 (MPTP [1]): 2.8 µM; Inhibition of mitochondrial respiration (basal, ADP-induced and uncoupled) [2]: did not inhibit; Inhibition of Cyp-D peptidyl prolyl cis-trans isomerase activity (Cyp-D): did not inhibit
C=C1[C@@H]2CC[C@H]3[C@]4(C)C[C@H](O[C@@H]5O[C@H](CO)[C@@H](OS(=O)(=O)O)[C@H](OS(=O)(=O)O)[C@H]5OC(=O)CC(C)C)C[C@@H](C(=O)O)[C@H]4CC[C@]3(C2)[C@H]1O [ATR, atractyloside]	did not affect	–	–	–
CO[C@H](C/C=C\C=C\CC/C=C/C[C@H](C)/C=C/C(=C\C(=O)O)CC(=O)O)/C(C)=C\C=C(/C)C(=O)O [Bongkrekic acid]	did not affect	additive	11.5	–
O=S(=O)(O)c1cc(N=C=S)ccc1C=Cc1ccc(N=C=S)cc1S(=O)(=O)O [DIDS, 4,4′-diisothiocyanatostilbene-2,2′-disulfonic acid]	appeared to inhibit	–	–	–
CN1CCN(CCCN2c3ccccc3Sc3ccc(C(F)(F)F)cc32)CC1 [Trifluoroperazine]	did not affect	–	9.4	Additive effect when combined with the spiro compound (Example 2) (MPTP [3]): additive
COC1=C(OC)C(=O)C(C/C=C(\C)CC/C=C(\C)CC/C=C(\C)CC/C=C(\C)CCC=C(C)C)=C(C)C1=O [Ub5, ubiquinone5, reference compound]	–	–	–	Effect of Ub5 alone (MPTP [4]): no effect
COC1=C(OC)C(=O)C(C)=CC1=O [Ubiquinone0]	Inhibition	no such additive effect	23.2	EC50 (MPTP [1]): 4.9 µM
